The values that follow come from patent publication US12545677B2, “Compounds useful as factor XIa inhibitors” (JANSSEN PHARMACEUTICA NV, priority 2020, dated 2026).

Data set [1] deals with Salmonella typhimurium strains TA98 and TA mixed. The experiment in a line: AMES II assay. The format is cell-based. Particulars: absence and presence of S9. Here is the method:
Biological Example 7: AMES II Assay
The aim of this study was to evaluate compound(s) and/or their metabolite(s) for their ability to induce reverse mutations in a gene of histidine-requiring Salmonella typhimurium strains to produce histidine-independent strains of these bacteria, in the absence and in the presence of a mammalian metabolic activation system.
Mutagenic potential was assessed by using an in-house adaptation of the Ames II Mutagenicity Assay kit from Xenometrics (Boulder, CA, USA). The strains TA98 and TA mixed (a combination of 6 strains) used in this study were able to detect frame-shift mutations and base pair substitutions respectively. […]
In the in vitro gene reverse mutation test, effects were determined by exposing a mutant strain of Salmonella typhimurium to various concentrations of the test compound. […] These colonies (revertants) are readily detectable due to their ability to grow on a histidine deficient medium. […] The revertant bacteria are detected by their ability to grow in the absence of the amino acid required by the parent test strain. […] The strains containing the plasmid, pKM101, are reverted by a number of mutagens that are detected weakly or not at all with the non plasmid bearing parent strains. […]

For data set [2], the target named is Factor XIa (Homo sapiens, UniProt P03951). Briefly: Factor XIa inhibition assay using fluorophore-quencher pair peptide substrate. The format is biochemical. An excerpt: Biological Example 1: Factor XIa Inhibition Assay
Sequence of Factor XIa (P03951 388-625 limits assumed): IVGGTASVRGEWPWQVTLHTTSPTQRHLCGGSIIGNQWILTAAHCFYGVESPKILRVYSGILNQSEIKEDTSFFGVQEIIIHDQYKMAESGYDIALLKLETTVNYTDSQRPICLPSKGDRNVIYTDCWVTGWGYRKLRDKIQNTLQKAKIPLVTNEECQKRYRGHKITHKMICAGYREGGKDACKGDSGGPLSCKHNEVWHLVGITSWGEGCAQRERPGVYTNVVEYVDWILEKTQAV
Sequence of Factor XIa (P03951 19-387 partner limits assumed): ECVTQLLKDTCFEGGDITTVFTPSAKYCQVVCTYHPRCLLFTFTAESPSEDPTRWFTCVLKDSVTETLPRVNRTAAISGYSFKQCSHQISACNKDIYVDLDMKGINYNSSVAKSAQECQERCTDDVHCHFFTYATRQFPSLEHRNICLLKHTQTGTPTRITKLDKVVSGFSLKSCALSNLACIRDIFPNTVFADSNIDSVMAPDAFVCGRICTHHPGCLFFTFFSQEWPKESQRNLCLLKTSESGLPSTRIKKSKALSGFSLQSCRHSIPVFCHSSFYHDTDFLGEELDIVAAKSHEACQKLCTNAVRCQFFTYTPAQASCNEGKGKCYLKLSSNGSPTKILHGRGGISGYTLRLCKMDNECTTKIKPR
Using Fluorophore-quencher Pair Peptide Substrate
A fluorescence intensity-based assay was used to monitor inhibition of Factor XIa. The peptide substrate, 5Fam-[…]-K5Tamra (purchased from New England Peptide) was chosen based on the […]. Conversion of zymogen FIX to its activated form, FIXa, occurs by proteolytic cleavage by FXIa at two sites, Arg146 and Arg180. The custom peptide used in this assay was based on the Arg146 cleavage site. The peptide substrate was designed with a fluorophore-quencher pair, where the fluorescence is quenched until FXIa cleaves the 8-mer peptide after the Arg residue.
Factor XIa FLINT assay was used with the following 5Fam-[…]-K5Tamra assay buffer: 50 mM Tris, pH 7.5, 100 mM NaCl, 5 mM CaCl2, 0.1 mg/mL BSA, 0.03% CHAPS was used. Assay buffer was prepared by mixing all ingredients fresh. 2×5Fam-[…]-K5Tamra peptide substrate was first prepared in 100% DMSO, then diluted 10 mM to 3 mM in 100% DMSO. Assay buffer was then added directly to the 3 mM stock of substrate to prepare the 30 μM 2× working concentration (15 μM final concentration). The 2× Factor XIa stock solution was prepared by diluting 6.562 μM stock in 1× assay buffer for a 200 pM working stock solution (100 pM final concentration).
Test compound(s) were run in an 11-point, 3-fold serial dilution with a final top compound concentration of […]. Final DMSO in assay was 2% DMSO. FXIa and compound were pre-incubated for 30 minutes and substrate was then added to initiate the reaction. The assay was linear using 100 pM FXIa greater than 30 minutes. More specifically, the assay was run as follows: • 100 nL of 1 mM test compound was dispensed into a black 384-well non-binding Greiner BioOne 784900 plate for 10 μM final concentration with 1% DMSO final concentration; • 5 μL of 1× assay buffer was dispensed to column 24 (low control) and 5 μL 2× Factor XIa solution was dispensed to columns 1-23 (column 23 high control); • the plate was centrifuged with a “cover” plate at 500 rpm for 1 min • the plate was pre-incubated for 30 minutes at room temperature with plate covered; • 5 μL of 2× 5Fam-[…]-K5Tamra peptide substrate was dispensed into the entire plate, columns 1-24; • the plate was centrifuged with a cover plate at 500 rpm for 1 min; • the plate was read kinetically monitoring fluorescence intensity on the BMG PHERAStar at room temperature, using fluorescence module F1 485 mm/520 mm.
Percent inhibition (IC50) curves were generated per compound tested, and data was analyzed using a 4-parameter logistic fit using GeneData Screener. […]

Turning to `O=C1C=C(c2c(-n3cnnn3)ccc(Cl)c2F)C[C@H]2CC[C@@H](c3ncc(-c4ccnc(CO)c4F)[nH]3)N12` [Compound of formula (I-A), (3S,8aR)-7-(3-Chloro-2-fluoro-6-(1H-tetrazol-1-yl)phenyl)-3-(5-(3-fluoro-2-(hydroxymethyl)pyridin-4-yl)-1H-imidazol-2-yl)-2,3,8,8a-tetrahydroindolizin-5(1H)-one], the “AMES II assay result” value in data set [1] was “negative”.
For the compound `O=C(O)c1nccc(-c2cnc([C@@H]3CC[C@@H]4CC(c5c(-n6cnnn6)ccc(Cl)c5F)=CC(=O)N43)[nH]2)c1F` [Compound of formula (II-A), 4-(2-((3S,8aR)-7-(3-chloro-2-fluoro-6-(1H-tetrazol-1-yl)phenyl)-5-oxo-1,2,3,5,8,8a-hexahydroindolizin-3-yl)-1H-imidazol-5-yl)-3-fluoropicolinic acid], in data set [2], 0.3 nM corresponded to half-maximal inhibition (IC50).

Broadly, the IC50 is the concentration that inhibits the measured activity by half. Read a low IC50 as greater potency in that assay.
